Three compounds from US12660819B2, “Herbicidal derivatives” (SYNGENTA CROP PROTECTION AG, priority 2020, dated 2026) can be followed below.

Holding throughout (format): in vivo
Test [1] has as its system Setaria faberi (SETFA). The test is described as follows: Pre-emergence Test (glasshouse, percentage damage to the plant). To be noted: 1000 g/ha unless otherwise stated, five-point scale.
Test [2] concerns Amaranthus retoflexus (AMARE). The test is described as follows: Post-emergence Test (glasshouse, percentage damage to the plant). To be noted: post-emergence spray, 1000 g/ha unless otherwise stated, evaluated after 13 days. Summed up:
(§1)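 Percentage damage to the plant, assessed 13 days after application and scored 1–5 in 20% bands. Pots sown in standard soil received compound at 1000 g/ha unless otherwise stated, sprayed under 24/16 °C, 14 h light, 65% humidity.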

Test [3] concerns Ipomoea hederacea (IPOHE). Described as above. To be noted: post-emergence spray, 1000 g/ha unless otherwise stated, evaluated after 13 days. Summed up:
(§2)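 Seeds are sown in standard soil under controlled glasshouse conditions. The pots are then sprayed at 1000 g/ha, unless otherwise stated, with compound in acetone/water (50:50) containing 0.5% Tween 20. After 13 days further growth, percentage plant damage is scored from 1 (0-20%) to 5 (81-100%).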

The subject of test [4] is Abutilon theophrasti (ABUTH). The description is as above. To be noted: post-emergence spray, 1000 g/ha unless otherwise stated, evaluated after 13 days. The gist of the method: as §1
Test [5] deals with Zea mays (ZEAMX). The test is described as above. To be noted: post-emergence spray, 1000 g/ha unless otherwise stated, evaluated after 13 days. The gist of the method:
as §2

The subject of test [6] is Echinochloa crus-galli (ECHCG). The test is described as above. To be noted: post-emergence spray, 1000 g/ha unless otherwise stated, evaluated after 13 days. The gist of the method:
as §1

The subject of test [7] is Setaria faberi (SETFA). Described as above. To be noted: post-emergence spray, 1000 g/ha unless otherwise stated, evaluated after 13 days. The gist of the method:
as §2

In test [8] the test system is Ipomoea hederacea (IPOHE). The experiment in a line: Pre-emergence Test (glasshouse, percentage damage to the plant). To be noted: 1000 g/ha unless otherwise stated, five-point scale.
Test [9] concerns Echinochloa crus-galli (ECHCG). The test is described as above. To be noted: 1000 g/ha unless otherwise stated, five-point scale.
Test [10] relates to Amaranthus retoflexus (AMARE). Described as above. To be noted: 1000 g/ha unless otherwise stated, five-point scale.
Test [11] relates to Abutilon theophrasti (ABUTH). Described as above. To be noted: 1000 g/ha unless otherwise stated, five-point scale.
Test [12] relates to Zea mays (ZEAMX). The test is described as above. To be noted: 1000 g/ha unless otherwise stated, five-point scale.

Turning to `CCn1c(C)c(-c2cc(C)cc(C#N)c2)c(=O)c(C(=O)O)c1-c1ccc(Cl)c(Cl)c1` [Compound 80, 5-(3-cyano-5-methyl-phenyl)-2-(3,4-dichlorophenyl)-1-ethyl-6-methyl-4-oxo-pyridine-3-carboxylic acid], the “percentage damage to the plant, SETFA” value with Setaria faberi (SETFA) [1] was 4 (4=61-80%). In test [2], the “Post-emergence Test AMARE, percentage damage to the plant (five-point scale)” value is recorded as 3 (3=41-60%). For the same compound, the “Post-emergence Test IPOHE, percentage damage to the plant (five-point scale)” value in test [3] is given as 1 (1=0-20%). In addition, the “Post-emergence Test ABUTH, percentage damage to the plant (five-point scale)” value in [4] is reported as 3 (3=41-60%). Further, the “Post-emergence Test ZEAMX, percentage damage to the plant (five-point scale)” value in the test on Zea mays (ZEAMX) [5] is 1 (1=0-20%). In addition, in test [6], the “Post-emergence Test ECHCG, percentage damage to the plant (five-point scale)” value is 1 (1=0-20%). Moreover, in the test with Setaria faberi (SETFA) [7], the “Post-emergence Test SETFA, percentage damage to the plant (five-point scale)” value was 3 (3=41-60%). Also, the “percentage damage to the plant, IPOHE” value in test [8] is reported as 1 (1=0-20%). Moreover, the “percentage damage to the plant, ECHCG” value in [9] was 1 (1=0-20%). In addition, the “percentage damage to the plant, AMARE” value in [10] was 1 (1=0-20%). For the same compound, the “percentage damage to the plant, ABUTH” value in test [11] was 1 (1=0-20%). In addition, the “percentage damage to the plant, ZEAMX” value in the test on Zea mays (ZEAMX) [12] was 1 (1=0-20%).

For the compound `CCn1c(C)c(-c2ccc(OC)c(C(F)(F)F)c2)c(=O)c(C(=O)O)c1-c1ccc(Cl)c(Cl)c1` [Compound 81, 2-(3,4-dichlorophenyl)-1-ethyl-5-[4-methoxy-3-(trifluoromethyl)phenyl]-6-methyl-4-oxo-pyridine-3-carboxylic acid], the “percentage damage to the plant, SETFA” value with Setaria faberi (SETFA) [1] is on record as 4 (4=61-80%). In test [2], the “Post-emergence Test AMARE, percentage damage to the plant (five-point scale)” value is 2 (2=21-40%). For the same compound, the “Post-emergence Test IPOHE, percentage damage to the plant (five-point scale)” value in [3] is 2 (2=21-40%). In addition, in test [4], the “Post-emergence Test ABUTH, percentage damage to the plant (five-point scale)” value is 3 (3=41-60%). Besides, in the test on Zea mays (ZEAMX) [5], the “Post-emergence Test ZEAMX, percentage damage to the plant (five-point scale)” value is given as 1 (1=0-20%). In addition, the “Post-emergence Test ECHCG, percentage damage to the plant (five-point scale)” value in test [6] is listed as 3 (3=41-60%). Further, the “Post-emergence Test SETFA, percentage damage to the plant (five-point scale)” value in the test on Setaria faberi (SETFA) [7] is 3 (3=41-60%). For the same compound, in test [8], the “percentage damage to the plant, IPOHE” value is listed as 1 (1=0-20%). Also, the “percentage damage to the plant, ECHCG” value in test [9] was 1 (1=0-20%). Moreover, the “percentage damage to the plant, AMARE” value in test [10] is on record as 1 (1=0-20%). Also, the “percentage damage to the plant, ABUTH” value in [11] is listed as 1 (1=0-20%). Moreover, in the test with Zea mays (ZEAMX) [12], the “percentage damage to the plant, ZEAMX” value is 1 (1=0-20%).

Consider `CCn1c(C)c(-c2cc(Cl)cc(C(F)(F)F)c2)c(=O)c(C(=O)O)c1-c1ccc(Cl)c(Cl)c1` [Compound 82, 5-[3-chloro-5-(trifluoromethyl)phenyl]-2-(3,4-dichlorophenyl)-1-ethyl-6-methyl-4-oxo-pyridine-3-carboxylic acid], for which the “percentage damage to the plant, SETFA” value with Setaria faberi (SETFA) [1] is recorded as 2 (2=21-40%). In addition, in [2], the “Post-emergence Test AMARE, percentage damage to the plant (five-point scale)” value is 1 (1=0-20%). Also, the “Post-emergence Test IPOHE, percentage damage to the plant (five-point scale)” value in test [3] is recorded as 1 (1=0-20%). Besides, the “Post-emergence Test ABUTH, percentage damage to the plant (five-point scale)” value in [4] is listed as 2 (2=21-40%). Further, in the test with Zea mays (ZEAMX) [5], the “Post-emergence Test ZEAMX, percentage damage to the plant (five-point scale)” value is given as 1 (1=0-20%). Also, the “Post-emergence Test ECHCG, percentage damage to the plant (five-point scale)” value in [6] is on record as 1 (1=0-20%). In addition, the “Post-emergence Test SETFA, percentage damage to the plant (five-point scale)” value in the test on Setaria faberi (SETFA) [7] is reported as 1 (1=0-20%). Besides, in test [8], the “percentage damage to the plant, IPOHE” value is recorded as 1 (1=0-20%). Besides, the “percentage damage to the plant, ECHCG” value in [9] is given as 1 (1=0-20%). Also, in test [10], the “percentage damage to the plant, AMARE” value was 2 (2=21-40%). The “percentage damage to the plant, ABUTH” value in [11] was 1 (1=0-20%). Also, the “percentage damage to the plant, ZEAMX” value in the test on Zea mays (ZEAMX) [12] was 1 (1=0-20%).
